Assay results as given in patent publication US10111435B2, “Herbicidal compositions containing N-(1,3,4-oxadiazol-2-yl)-aryl carboxylic acid amides” (BAYER CROPSCIENCE AKTIENGESELLSCHAFT, priority 2013, dated 2018).

What was measured:
Assay type in all cases: in vivo
Galium aparine (GALAP) = assay: greenhouse post-emergence herbicidal efficacy against GALAP
Summary of the method: (§1)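 Seeds were sown in 8 cm pots of sandy loam and germinated under optimal conditions. Compositions or single active ingredients were sprayed post-emergence at 300 L/ha in the greenhouse. Visual % damage versus untreated plants (0% none, 100% complete kill) was scored 14 and 21 days after application, with Colby expected values (E^C=A+B−A×B/100) used to judge synergism.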

[1] = system: Amaranthus retroflexus (AMARE); assay: greenhouse post-emergence herbicidal efficacy against AMARE
Description: (§2) All trials whose results are shown were conducted in a greenhouse by the methodology specified below. The effect of the inventive herbicidal compositions was examined on the following harmful plants 14 and 21 days after application:
(§3) Echinochloa crus-galli (ECHCG), Eleusine indica (ELEIN), Setaria viridis (SETVI), Amaranthus retroflexus (AMARE), Chenopodium album (CHEAL), Kochia scoparia (KCHSC), Solanum nigrum (SOLNI), Avena fatua (AVEFA), Bromus sterilis (BROST), Lolium multiflorum (LOLMU), Phalaris minor (PHAMI), Poa annua (POAAN), Galium aparine (GALAP), Matricaria inodora (MATIN) and Polygonum convolvulus (POLCO).
(§4) The harmful plant seeds were sown in pots (diameter 8 cm) with sandy loam soil and germinated under optimal conditions. The inventive herbicidal compositions or the active ingredients alone were applied post-emergence to the planted pots with a spray volume of 300 L/ha. The trial was conducted in a greenhouse under optimum growth conditions. The herbicidal effects were assessed visually by comparison of untreated and treated plants. The percentages mean: 0%=no effects, 100%=the plants die off completely). The percentages are used to calculate interactions between individual treatments and combination treatments according to S. R. Colby, Weeds 15, pages 20 to 22 (1967).
(§5) The abbreviations mean: • a.i.=active ingredient • E^C=expected value according to Colby (E^C=A+B−A×B/100) • Diff: =difference (%) of measured value from expected value (%) (measured value minus expected value)
(§6) Assessment: • measured value E is greater than E^C:->synergism (+ diff.) • measured value E equals E^C:->additive effect • measured value E is smaller than E^C:->antagonism(− diff.)

[2] = system: Polygonum convolvulus (POLCO); assay: greenhouse post-emergence herbicidal efficacy against POLCO
Summary of the method: as §1

[3] = system: Echinochloa crus-galli (ECHCG); assay: greenhouse post-emergence herbicidal efficacy against ECHCG
Description: as §2, §3, §4, §5, §6

[4] = system: Lolium multiflorum (LOLMU); assay: greenhouse post-emergence herbicidal efficacy against LOLMU
Summary of the method: as §1

Bromus sterilis (BROST) = assay: greenhouse post-emergence herbicidal efficacy against BROST
Summary of the method: as §1

Eleusine indica (ELEIN) = assay: greenhouse post-emergence herbicidal efficacy against ELEIN; conditions: for pest or weed control at 10 g/ha: 10 g of a.i./ha; for pest or weed control at 40 g/ha: 40 g of a.i./ha
Description: as §2, §3, §4, §5, §6

Setaria viridis (SETVI) = assay: greenhouse post-emergence herbicidal efficacy against SETVI
Description: as §2, §3, §4, §5, §6

DIGSA = assay: greenhouse post-emergence herbicidal efficacy against DIGSA
Description: as §2, §4, §5, §6

[5] = system: Matricaria inodora (MATIN); assay: greenhouse post-emergence herbicidal efficacy against MATIN
Summary of the method: as §1

Phalaris minor (PHAMI) = assay: greenhouse post-emergence herbicidal efficacy against PHAMI
Summary of the method: as §1

[6] = system: Chenopodium album (CHEAL); assay: greenhouse post-emergence herbicidal efficacy against CHEAL
Description: as §2, §3, §4, §5, §6

Poa annua (POAAN) = assay: greenhouse post-emergence herbicidal efficacy against POAAN
Summary of the method: as §1

Solanum nigrum (SOLNI) = assay: greenhouse post-emergence herbicidal efficacy against SOLNI; conditions: 21 days after application
Description: as §2, §3, §4, §5, §6

Avena fatua (AVEFA) = assay: greenhouse post-emergence herbicidal efficacy against AVEFA
Summary of the method: as §1

[7] = 21 days after application, g of a.i./ha: A1-14 2.5, pyrasulfotole 25
[8] = 21 days after application, g of a.i./ha: A1-14 10, pyrasulfotole 25
[9] = 14 days after application, 0.1 g of a.i./ha
[10] = 14 days after application, 2.5 g of a.i./ha
[11] = 14 days after application, 10 g of a.i./ha
[12] = 21 days after application, g of a.i./ha: A1-14 2.5, pyrasulfotole 100
[13] = 21 days after application, g of a.i./ha: A1-14 10, pyrasulfotole 100
[14] = 14 days after application, 0.4 g of a.i./ha
[15] = 21 days after application, 0.4 g of a.i./ha
[16] = 14 days after application, 50 g of a.i./ha
[17] = 21 days after application, g of a.i./ha: A1-34 50, iodosulfuron-methyl-sodium 0.5
[18] = 21 days after application, g of a.i./ha: A1-34 200, iodosulfuron-methyl-sodium 2
[19] = 21 days after application, 25 g of a.i./ha
[20] = 21 days after application, 100 g of a.i./ha
[21] = 14 days after application, 200 g of a.i./ha
[22] = 21 days after application, g of a.i./ha: A1-34 50, iodosulfuron-methyl-sodium 2
[23] = 21 days after application, g of a.i./ha: A1-55 10, glufosinate-ammonium 25
[24] = 14 days after application, 0.5 g of a.i./ha
[25] = 21 days after application, g of a.i./ha: A1-55 10, glufosinate-ammonium 100
[26] = 21 days after application, g of a.i./ha: A1-55 2.5, glufosinate-ammonium 100
[27] = 14 days after application, 2 g of a.i./ha
[28] = 21 days after application, 2 g of a.i./ha
[29] = 21 days after application, g of a.i./ha: A1-55 2.5, glufosinate-ammonium 25
[30] = 14 days after application, 100 g of a.i./ha
[31] = 14 days after application, 400 g of a.i./ha
[32] = 21 days after application, 400 g of a.i./ha
[33] = 14 days after application, 40 g of a.i./ha
[34] = 21 days after application, 40 g of a.i./ha
[35] = Eleusine indica, post-emergence, 336 h, 14 days after application
[36] = Eleusine indica, post-emergence, 504 h, 21 days after application
[37] = 21 days after application, 0.25 g of a.i./ha

Cc1nnc(NC(=O)c2ccc(C(F)(F)F)c([S+](C)[O-])c2Cl)o1 (centres unmarked) [A1-14]
Efficacy (Galium aparine (GALAP); [7]): 0%
Efficacy (Galium aparine (GALAP); [8]): 15%
Efficacy [1, 9]: 0%
Efficacy [2, 10]: 20%
Efficacy [2, 11]: 20%
Efficacy [2, 7]: 0%
Efficacy [2, 12]: 0%
Efficacy [2, 8]: 3%
Efficacy [2, 13]: 3%
Efficacy [3, 14]: 0%
Efficacy [3, 15]: 0%
Efficacy [4, 10]: 0%
Efficacy [4, 11]: 0%
Efficacy (Bromus sterilis (BROST); [10]): 0%
Efficacy (Bromus sterilis (BROST); [11]): 3%
Efficacy (Bromus sterilis (BROST); [13]): 0%
Efficacy (Eleusine indica (ELEIN); [9]): 0%
Efficacy (Eleusine indica (ELEIN); [14]): 20%
Efficacy (Setaria viridis (SETVI); [9]): 0%
Efficacy (Setaria viridis (SETVI); [15]): 0%
Efficacy (DIGSA; [14]): 0%
Efficacy (DIGSA; [15]): 0%
Efficacy [5, 10]: 50%
Efficacy [5, 11]: 60%
Efficacy [5, 12]: 30%
Efficacy (Phalaris minor (PHAMI); [10]): 0%
Efficacy (Phalaris minor (PHAMI); [11]): 25%
Efficacy (Phalaris minor (PHAMI); [7]): 0%
Efficacy (Phalaris minor (PHAMI); [12]): 0%
Efficacy [6, 9]: 0%
Efficacy ([6]; 21 days after application, 0.1 g of a.i./ha): 0%
Efficacy (Poa annua (POAAN); [10]): 10%
Efficacy (Poa annua (POAAN); [7]): 0%
Efficacy (Poa annua (POAAN); [12]): 0%

Cc1c(C(=O)Nc2nnc(C3CC3)o2)ccc(C(F)(F)F)c1[S+](C)[O-] (centres unmarked) [A1-34]
Efficacy (Galium aparine (GALAP); [16]): 50%
Efficacy (Galium aparine (GALAP); [17]): 20%
Efficacy (Galium aparine (GALAP); [18]): 40%
Efficacy [1, 19]: 30%
Efficacy [1, 20]: 50%
Efficacy [2, 21]: 30%
Efficacy [2, 17]: 0%
Efficacy [2, 22]: 0%
Efficacy (Solanum nigrum (SOLNI); 25 g of a.i./ha): 10%
Efficacy [4, 16]: 5%
Efficacy [4, 21]: 30%
Efficacy (Avena fatua (AVEFA); [18]): 5%
Efficacy (Bromus sterilis (BROST); [16]): 10%
Efficacy (Bromus sterilis (BROST); [22]): 15%
Efficacy (Bromus sterilis (BROST); [18]): 35%
Efficacy [5, 17]: 50%
Efficacy (Phalaris minor (PHAMI); [21]): 60%
Efficacy [6, 19]: 70%
Efficacy (Poa annua (POAAN); [21]): 85%

Cc1nnc(NC(=O)c2ccc(C(F)(F)F)c(-n3cccn3)c2Cl)o1 [A1-55]
Efficacy (Galium aparine (GALAP); [10]): 0%
Efficacy (Galium aparine (GALAP); [11]): 30%
Efficacy (Galium aparine (GALAP); [23]): 15%
Efficacy [1, 24]: 20%
Efficacy ([1]; 21 days after application, 0.5 g of a.i./ha): 10%
Efficacy [2, 10]: 0%
Efficacy [2, 11]: 0%
Efficacy [2, 23]: 0%
Efficacy [2, 25]: 0%
Efficacy [4, 10]: 0%
Efficacy [4, 11]: 15%
Efficacy [4, 26]: 0%
Efficacy [4, 25]: 10%
Efficacy (Avena fatua (AVEFA); [10]): 0%
Efficacy (Avena fatua (AVEFA); [26]): 0%
Efficacy (Avena fatua (AVEFA); [25]): 10%
Efficacy (Bromus sterilis (BROST); [10]): 5%
Efficacy (Bromus sterilis (BROST); [26]): 0%
Efficacy (Bromus sterilis (BROST); [23]): 10%
Efficacy (Eleusine indica (ELEIN); [27]): 40%
Efficacy (Eleusine indica (ELEIN); [28]): 30%
Efficacy (Setaria viridis (SETVI); [27]): 40%
Efficacy (Setaria viridis (SETVI); [28]): 30%
Efficacy (DIGSA; [24]): 20%
Efficacy (DIGSA; [28]): 30%
Efficacy [5, 10]: 0%
Efficacy [5, 11]: 30%
Efficacy [5, 29]: 0%
Efficacy [5, 26]: 0%
Efficacy [5, 23]: 20%
Efficacy [5, 25]: 20%
Efficacy (Phalaris minor (PHAMI); [10]): 0%
Efficacy (Phalaris minor (PHAMI); [11]): 25%
Efficacy (Phalaris minor (PHAMI); [29]): 0%
Efficacy (Phalaris minor (PHAMI); [26]): 0%
Efficacy (Phalaris minor (PHAMI); [23]): 5%
Efficacy (Phalaris minor (PHAMI); [25]): 5%
Efficacy [6, 27]: 70%
Efficacy (Poa annua (POAAN); [10]): 5%
Efficacy (Poa annua (POAAN); [11]): 20%
Efficacy (Poa annua (POAAN); [26]): 0%
Efficacy (Poa annua (POAAN); [25]): 0%

N#Cc1cc(Br)c(O)c(Br)c1 [bromoxynil]
Efficacy [1, 30]: 40%
Efficacy [3, 31]: 0%
Efficacy [3, 30]: 0%
Efficacy [3, 32]: 0%
pest or weed control at 100 g/ha (Eleusine indica (ELEIN); Eleusine indica, post-emergence, 336 h, 14 days after application, 100 g of a.i./ha): 0%
pest or weed control at 400 g/ha (Eleusine indica (ELEIN); Eleusine indica, post-emergence, 336 h, 14 days after application, 400 g of a.i./ha): 0%
Efficacy (Setaria viridis (SETVI); [31]): 0%
Efficacy (Setaria viridis (SETVI); [30]): 0%
Efficacy (Setaria viridis (SETVI); [20]): 0%
Efficacy (Setaria viridis (SETVI); [32]): 0%
Efficacy (DIGSA; [31]): 0%
Efficacy (DIGSA; [30]): 0%
Efficacy (DIGSA; [20]): 0%
Efficacy (DIGSA; [32]): 0%
Efficacy [6, 31]: 85%
Efficacy [6, 32]: 75%

COc1c(Cl)ccc(Cl)c1C(=O)O [dicamba]
Efficacy [1, 33]: 65%
Efficacy [1, 34]: 65%
pest or weed control at 10 g/ha (Eleusine indica (ELEIN); [35]): 10%
pest or weed control at 40 g/ha (Eleusine indica (ELEIN); [35]): 10%
pest or weed control at 10 g/ha (Eleusine indica (ELEIN); [36]): 0%
pest or weed control at 40 g/ha (Eleusine indica (ELEIN); [36]): 0%
Efficacy (Setaria viridis (SETVI); [33]): 0%
Efficacy (Setaria viridis (SETVI); [11]): 0%
Efficacy (Setaria viridis (SETVI); 21 days after application, 10 g of a.i./ha): 0%
Efficacy (Setaria viridis (SETVI); [34]): 0%
Efficacy (DIGSA; [33]): 0%
Efficacy (DIGSA; [34]): 0%
Efficacy [6, 11]: 50%

COC(=O)c1csc(C)c1S(=O)(=O)NC(=O)n1nc(OC)n(C)c1=O [thiencarbazone-methyl]
Efficacy [1, 37]: 60%
Efficacy (Solanum nigrum (SOLNI); 1 g of a.i./ha): 50%
Efficacy [6, 37]: 50%
Efficacy ([6]; 21 days after application, 1 g of a.i./ha): 70%
